According to patent US20250049926A1, “PHARMACEUTICAL COMPOSITIONS COMPRISING MODIFIED BETACYCLODEXTRINS” (priority 2021, published 2025):

Test: Solubility measurement of saturated solutions by HPLC at room temperature (0 h and 24 h)
Type: physicochemical
Conditions: for solubility at 24 h / solubility at 0 h: thermodynamic from solid
Protocol: The vial contents are prepared starting with 2.5 mg of the compound of formula (I). The primary excipient is added followed by any further excipient and then the buffered water to a total volume of 500 μL. All components are mixed in a vortex mixer for ca. 5 minutes. If everything is dissolved an additional 2.5 mg of the compound of formula (I) is added and vortexed again for ca. 5 minutes. This is repeated until a saturated solution (suspension) is obtained.
The solubility in vial 1 is measured immediately as described below.
To measure solubility 400 μl of the suspension are taken and placed in a centrifugation device above a 0.2 μm filter. Centrifugation is performed at 14,000 rpm for 10 minutes and if necessary repeated for additional 10 minutes. The filter is removed from the vial and 100 μL is taken and diluted with 400 μL high-performance liquid chromatography (HPLC) diluent solution (see below) or diluted with 900 μL HPLC diluent solution in the event 5 mg or more of the compound of formula (I) was used. The pH of the solution is measured. A further 100 μL of the vial solution is taken and diluted with 400 μL of HPLC diluent solution or diluted with 900 μL HPLC diluent solution in the event 5 mg or more of the compound of formula (I) was used. The assay of the solution versus control stock solution is measured by HPLC and the solubility is calculated as described below. The HPLC diluent solution is 0.1% trifluoroacetic acid (TFA) in acetonitrile (ACN) and water (1:1 v/v).
All solubility tests are performed at room temperature.
The HPLC method for assessing solubility is performed as follows:
The solubility of the compound of formula (I) is calculated according to the following formula:
[formula] • Solubility=solubility of compound of formula (I) (mg/mL) • A=peak area of the compound of the sample tested • a=value of constant “a” in Linear regression equation y=ax+b • b=value of constant “b” in Linear regression equation y=ax+b • n=dilution time • Formulations for stability assessment are prepared as follows: […]

[1] = buffered water with excipients, pH 7, aqueous with cosolvent or surfactant or cyclodextrin, CBS 30 mM pH 7.0, NaCl 3 mg/mL, SBE-beta-CD 40 mg/mL, pH exp 7.0

- solubility at 24 h (buffered water with excipients, pH 4, aqueous with cosolvent or surfactant or cyclodextrin, CBS 30 mM pH 4.0, NaCl 6 mg/mL, SBE-beta-CD 40 mg/mL + Propylene glycol 5 mg/mL, pH exp 4.3): 3820 µg/mL
- solubility at 0 h (buffered water with excipients, pH 4, aqueous with cosolvent or surfactant or cyclodextrin, CBS 30 mM pH 4.0, NaCl 6 mg/mL, SBE-beta-CD 40 mg/mL + Propylene glycol 10 mg/mL, pH exp 4.1): 2420 µg/mL
- solubility at 24 h (buffered water with excipients, pH 4, aqueous with cosolvent or surfactant or cyclodextrin, CBS 30 mM pH 4.0, NaCl 6 mg/mL, SBE-beta-CD 40 mg/mL + Propylene glycol 10 mg/mL, pH exp 4.2): 3650 µg/mL
- solubility at 0 h (buffered water with excipients, pH 4, aqueous with cosolvent or surfactant or cyclodextrin, CBS 30 mM pH 4.0, NaCl 6 mg/mL, SBE-beta-CD 40 mg/mL + Propylene glycol 20 mg/mL, pH exp 4.1): 2310 µg/mL
- solubility at 24 h (buffered water with excipients, pH 4, aqueous with cosolvent or surfactant or cyclodextrin, CBS 30 mM pH 4.0, NaCl 6 mg/mL, SBE-beta-CD 40 mg/mL + Propylene glycol 20 mg/mL, pH exp 4.2): 3440 µg/mL
- solubility at 0 h (buffered water with excipients, pH 4, aqueous with cosolvent or surfactant or cyclodextrin, CBS 30 mM pH 4.0, NaCl 6 mg/mL, SBE-beta-CD 40 mg/mL + Propylene glycol 30 mg/mL, pH exp 4.1): 2150 µg/mL
- solubility at 24 h (buffered water with excipients, pH 4, aqueous with cosolvent or surfactant or cyclodextrin, CBS 30 mM pH 4.0, NaCl 6 mg/mL, SBE-beta-CD 40 mg/mL + Propylene glycol 30 mg/mL, pH exp 4.2): 3350 µg/mL
- solubility at 0 h (buffered water with excipients, pH 4, aqueous with cosolvent or surfactant or cyclodextrin, CBS 30 mM pH 4.0, SBE-beta-CD 54 mg/mL + Ethanol 16 mg/mL, pH exp 4.1): 2490 µg/mL
- solubility at 24 h (buffered water with excipients, pH 4, aqueous with cosolvent or surfactant or cyclodextrin, CBS 30 mM pH 4.0, SBE-beta-CD 54 mg/mL + Ethanol 16 mg/mL, pH exp 4.3): 3850 µg/mL
- solubility at 0 h (buffered water with excipients, pH 4, aqueous with cosolvent or surfactant or cyclodextrin, CBS 30 mM pH 4.0, SBE-beta-CD 54 mg/mL + PEG 300 56 mg/mL, pH exp 4.2): 2890 µg/mL
- solubility at 24 h (buffered water with excipients, pH 4, aqueous with cosolvent or surfactant or cyclodextrin, CBS 30 mM pH 4.0, SBE-beta-CD 54 mg/mL + PEG 300 56 mg/mL, pH exp 4.3): 4030 µg/mL
- solubility at 0 h (buffered water with excipients, pH 4, aqueous with cosolvent or surfactant or cyclodextrin, CBS 30 mM pH 4.0, SBE-beta-CD 56 mg/mL + PEG 400 22 mg/mL, pH exp 4.2): 2810 µg/mL
- solubility at 24 h (buffered water with excipients, pH 4, aqueous with cosolvent or surfactant or cyclodextrin, CBS 30 mM pH 4.0, SBE-beta-CD 56 mg/mL + PEG 400 22 mg/mL, pH exp 4.3): 4060 µg/mL
- solubility at 0 h (buffered water with excipients, pH 4, aqueous with cosolvent or surfactant or cyclodextrin, GBS (gluconate) 30 mM pH 4.0, NaCl 3 mg/mL, SBE-beta-CD 40 mg/mL, pH exp 4.1): 2590 µg/mL
- solubility at 24 h (buffered water with excipients, pH 4, aqueous with cosolvent or surfactant or cyclodextrin, GBS (gluconate) 30 mM pH 4.0, NaCl 3 mg/mL, SBE-beta-CD 40 mg/mL, pH exp 4.5): 3940 µg/mL
- solubility at 0 h (buffered water with excipients, pH 4, aqueous with cosolvent or surfactant or cyclodextrin, LBS (lactate) 30 mM pH 4.0, NaCl 3 mg/mL, SBE-beta-CD 40 mg/mL, pH exp 4.1): 2690 µg/mL
- solubility at 24 h (buffered water with excipients, pH 4, aqueous with cosolvent or surfactant or cyclodextrin, LBS (lactate) 30 mM pH 4.0, NaCl 3 mg/mL, SBE-beta-CD 40 mg/mL, pH exp 4.3): 3980 µg/mL
- solubility at 24 h (buffered water with excipients, pH 5.5, aqueous with cosolvent or surfactant or cyclodextrin, CBS 30 mM pH 5.5, NaCl 3 mg/mL, SBE-beta-CD 40 mg/mL, pH exp 5.7): 3100 µg/mL
- solubility at 0 h [1]: 2230 µg/mL
- solubility at 24 h [1]: 2230 µg/mL
- solubility at 0 h (buffered water without excipient (saturated solution), pH 4, aqueous buffer, CBS 30 mM pH 4.0, no excipient, pH exp 4.0): 160 µg/mL
- solubility at 24 h (buffered water without excipient (saturated solution), pH 4, aqueous buffer, CBS 30 mM pH 4.0, no excipient, pH exp 4.2): 120 µg/mL
- effect of buffer on solubility with SBE-beta-CD (citrate acid, acetic acid, gluconic acid, lactic acid and aspartic acid buffer): approximately the same
- solubility (in words) (other solubilizers at concentrations suitable for intravenous use, including hydroxypropyl beta-cyclodextrin): Low solubility
- effect of additional excipient on solubility with SBE-beta-CD (saline): very small impact on solubility
- solubility (in words) (with SBE-beta-CD at concentrations of solubilizer suitable for intravenous use): High solubility
- solubility (in words) (with SBE-beta-CD, at higher pH): lower solubility
- solubility (in words) (with SBE-beta-CD, between pH 4 to pH 5.5): High solubility
SMILES: COc1cc(N2CCNCC2)ccc1Nc1ncc2c(n1)-n1ccc(C(=O)Nc3c(C)cccc3C)c1CC2 [compound of formula (I)]
